{
  "source": "BindingDB's records for doi:10.1016/j.bmcl.2005.09.022",
  "about": "(Bristol-Myers Squibb Pharmaceutical Research Institute, 2005)",
  "target": "C-C chemokine receptor type 4 (Mus musculus) (UniProt P51680)",
  "sequence (P51680 whole entry, looked up)": "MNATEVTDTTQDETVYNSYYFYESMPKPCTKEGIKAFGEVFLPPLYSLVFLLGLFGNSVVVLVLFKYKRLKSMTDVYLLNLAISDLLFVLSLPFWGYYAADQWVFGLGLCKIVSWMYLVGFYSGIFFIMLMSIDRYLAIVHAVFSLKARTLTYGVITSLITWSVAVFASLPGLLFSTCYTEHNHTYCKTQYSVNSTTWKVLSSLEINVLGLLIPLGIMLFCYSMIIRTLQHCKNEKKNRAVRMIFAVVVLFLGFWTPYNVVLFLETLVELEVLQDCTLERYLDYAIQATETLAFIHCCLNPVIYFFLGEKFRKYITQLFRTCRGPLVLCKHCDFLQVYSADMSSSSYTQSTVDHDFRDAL",
  "assay": "Inhibition of chemotaxis of murine CCR4 transfected L1.2 cells",
  "data": [
    {"compound": "O=C([C@H]1CCCCN1)N1CCN(c2nccc(NCc3ccc(Cl)cc3Cl)n2)CC1", "note": "[(R)-(4-(4-(2,4-dichlorobenzylamino)pyrimidin-2-yl)piperazin-1-yl)(piperidin-2-yl)methanone]", "values": [
      {"measurement": "IC50", "value": 380, "unit": "nM"}
    ]}
  ]
}
